# Data as given in US20210060013A1, “Method for Preventing Triple Negative Breast Cancer in Predisposed Subjects” (Southern University of Science and Technology, priority 2019, published 2021).
# Key:
# [1] = test system: inflammatory breast cancer cells; conditions: in vitro; cited from earlier work
# PDGFRβ [2] = target: PDGFRβ (Homo sapiens, UniProt P09619); conditions: cited from earlier work
# [3] = test system: other known RTKs (e.g., VEGFR or fibroblast growth factor receptor) or serine/threonine kinases (e.g. Abl, Raf); conditions: at concentrations that are used clinically; cited from earlier work
# PDGFRβ [4] = assay: Induced PDGFRβ pathway signaling in human mammary fibroblasts (Western blot); type: cell-based
# Method: SDS/PAGE and Western Blot Analysis. The labeling performance of probe 1 to various bait proteins was characterized by high-resolution SDS/PAGE using the PROTEAN II xi Cell electrophoresis instrument (gel size, 16×20 cm; Bio-Rad) and Coomassie brilliant blue staining. Equal amounts of protein were separated by SDS/PAGE and transferred to membranes. Membranes were blocked in 5% (wt/vol) BSA and then incubated with a primary antibody overnight at 4° C., followed by an incubation with an HRP-conjugated anti-rabbit or anti-mouse secondary antibody (Cell Signaling Technology). Proteins were visualized using a Western ECL Substrate Kit (Bio-Rad). The primary antibodies used in this study were streptavidin-HRP (Thermo Fisher), anti-4G10 (Merck Millipore), anti-His (Cell Signaling Technology), anti-EGFR (Cell Signaling Technology), anti-ERBB2 (Cell Signaling Technology), anti-PDGFRB (Cell Signaling Technology), anti-p-STAT3 (Cell Signaling Technology), anti-p-AKT (Cell Signaling Technology), anti-AKT (Cell Signaling Technology), anti-p-ERK 1/2 (Cell Signaling Technology), anti-ERK 1/2 (Cell Signaling Technology), and anti-β-actin (Beyotime).
# In addition, the ability of the present invention to block PDGFR signaling in a conditioned media in vitro system was investigated. […]
# MMTV-PyMT mice = assay: MMTV-PyMT mouse model of breast cancer, preventive crenolanib treatment; type: in vivo; conditions: for tumor growth (tumor volumes by calipers) vs vehicle-treated mice: measured every 5 d, beginning at day 10, FIGS. 1A, 1B
# Method: FIGS. 1A to 1C show the ability of the present invention to prevent the development of mammary tumors in a subject genetically predisposed and at high risk of developing breast cancer. MMTV-PyMT mice were administered crenolanib starting at 8 weeks of age, before the development of palpable mammary tumors. FIG. 1A: Mice were treated with 20 mg/kg crenolanib, dissolved in vehicle, intraperitoneally once daily for 35 days. FIG. 1B: Tumor sizes were measured using digital calipers every 5 days during treatment and volumes were calculated using a standard formula ((length×width)/2)). Control mice were treated with vehicle alone. FIG. 1C: At the end of crenolanib treatment, mice were sacrificed, and final tumor weight was determined.
# In the MMTV-PyMT mouse model of breast cancer, the Polyoma Virus middle T antigen is expressed under the control of the mouse mammary tumor virus promoter, which results in spontaneous formation of mammary tumors in female mice. This model effectively recapitulates all of the stages of human disease, and mice develop tumors begin developing palpable mammary tumors at approximately 13 weeks of age (Guy, Cardiff, & Muller, 1992). Therefore, the MMTV-PyMT model is a highly reproducible and highly faithful model for the development of TNBC.
# Animal Studies. All animal procedures were approved by the Institutional Animal Care and Use Committee at Southern University of Science and Technology. Twelve 8-wk-old female MMTV-PyMT mice were divided into six groups. The two mice in each group were littermates. Each group of mice was treated with crenolanib (20 mg/kg, dissolved in vehicle; Selleck) or vehicle [5% (vol/vol) glycerol formal; Sigma] intraperitoneally once daily for 35 d. Once palpable, tumor sizes were measured with a digital caliper every 5 d, and the volumes were calculated using the formula (length×width)/2. Data were reported as means±SE. At the end of crenolanib treatment, mice were killed, and tumors were harvested and weighted.
# In vivo analysis also validated that PDGFRB was prominently expressed in tumor associated stromal cells, including spindle-shaped fibroblasts, but not in tumor tissues by using the polyoma middle T (PyMT) oncogene-driven breast cancer mouse model, which mimics all identifiable stages of human breast cancer progression (28) (data not shown). […] To further analyze the paracrine effects of breast cancer cells on fibroblast expansion, the inventors assessed the ligand secretion by breast cancer cells (data not shown). […] Tumor volumes in crenolanib-treated and untreated mice were measured every 5 d after dosing initiation. […] In addition, tumor weight per mouse at sacrifice (12 wk) was 55% lower in crenolanib-treated mice than in vehicle-treated mice (FIG. 1C).
# [5] = in vivo; cited from earlier work
# PDGFRα = PDGFRα (Homo sapiens, UniProt P16234); conditions: cited from earlier work
# [6] = treatment starting at 8 weeks of age, before palpable mammary tumors
# PDGFRβ (Homo sapiens, UniProt P09619), sequence (P09619 33-1106): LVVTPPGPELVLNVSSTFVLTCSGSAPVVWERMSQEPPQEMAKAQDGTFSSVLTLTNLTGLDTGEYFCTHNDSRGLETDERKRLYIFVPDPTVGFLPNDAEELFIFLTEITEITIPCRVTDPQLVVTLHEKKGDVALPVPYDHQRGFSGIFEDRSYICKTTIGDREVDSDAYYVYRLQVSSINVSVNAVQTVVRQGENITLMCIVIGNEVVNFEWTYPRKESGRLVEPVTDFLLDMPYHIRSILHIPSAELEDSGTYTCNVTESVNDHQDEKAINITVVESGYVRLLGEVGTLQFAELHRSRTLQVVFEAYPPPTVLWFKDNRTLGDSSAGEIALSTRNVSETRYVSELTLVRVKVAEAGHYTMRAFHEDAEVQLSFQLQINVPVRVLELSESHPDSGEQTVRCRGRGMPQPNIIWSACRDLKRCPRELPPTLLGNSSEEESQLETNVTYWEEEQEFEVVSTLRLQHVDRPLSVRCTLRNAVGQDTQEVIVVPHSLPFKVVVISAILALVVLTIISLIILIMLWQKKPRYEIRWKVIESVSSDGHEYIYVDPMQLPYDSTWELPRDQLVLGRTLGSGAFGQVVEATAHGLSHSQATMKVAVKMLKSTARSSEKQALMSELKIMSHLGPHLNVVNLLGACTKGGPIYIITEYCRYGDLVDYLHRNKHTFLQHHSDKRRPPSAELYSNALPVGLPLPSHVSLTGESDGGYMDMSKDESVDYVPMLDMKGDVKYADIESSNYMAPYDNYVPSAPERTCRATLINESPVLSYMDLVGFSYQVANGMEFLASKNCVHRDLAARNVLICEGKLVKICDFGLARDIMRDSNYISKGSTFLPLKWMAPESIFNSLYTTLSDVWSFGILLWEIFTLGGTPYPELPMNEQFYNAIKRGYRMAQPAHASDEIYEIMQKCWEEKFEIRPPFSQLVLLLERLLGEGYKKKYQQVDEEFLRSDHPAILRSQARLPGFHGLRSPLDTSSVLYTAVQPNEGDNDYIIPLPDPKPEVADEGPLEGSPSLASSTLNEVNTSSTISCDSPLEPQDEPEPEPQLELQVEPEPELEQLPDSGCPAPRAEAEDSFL
# PDGFRα, sequence (P16234 24-1089): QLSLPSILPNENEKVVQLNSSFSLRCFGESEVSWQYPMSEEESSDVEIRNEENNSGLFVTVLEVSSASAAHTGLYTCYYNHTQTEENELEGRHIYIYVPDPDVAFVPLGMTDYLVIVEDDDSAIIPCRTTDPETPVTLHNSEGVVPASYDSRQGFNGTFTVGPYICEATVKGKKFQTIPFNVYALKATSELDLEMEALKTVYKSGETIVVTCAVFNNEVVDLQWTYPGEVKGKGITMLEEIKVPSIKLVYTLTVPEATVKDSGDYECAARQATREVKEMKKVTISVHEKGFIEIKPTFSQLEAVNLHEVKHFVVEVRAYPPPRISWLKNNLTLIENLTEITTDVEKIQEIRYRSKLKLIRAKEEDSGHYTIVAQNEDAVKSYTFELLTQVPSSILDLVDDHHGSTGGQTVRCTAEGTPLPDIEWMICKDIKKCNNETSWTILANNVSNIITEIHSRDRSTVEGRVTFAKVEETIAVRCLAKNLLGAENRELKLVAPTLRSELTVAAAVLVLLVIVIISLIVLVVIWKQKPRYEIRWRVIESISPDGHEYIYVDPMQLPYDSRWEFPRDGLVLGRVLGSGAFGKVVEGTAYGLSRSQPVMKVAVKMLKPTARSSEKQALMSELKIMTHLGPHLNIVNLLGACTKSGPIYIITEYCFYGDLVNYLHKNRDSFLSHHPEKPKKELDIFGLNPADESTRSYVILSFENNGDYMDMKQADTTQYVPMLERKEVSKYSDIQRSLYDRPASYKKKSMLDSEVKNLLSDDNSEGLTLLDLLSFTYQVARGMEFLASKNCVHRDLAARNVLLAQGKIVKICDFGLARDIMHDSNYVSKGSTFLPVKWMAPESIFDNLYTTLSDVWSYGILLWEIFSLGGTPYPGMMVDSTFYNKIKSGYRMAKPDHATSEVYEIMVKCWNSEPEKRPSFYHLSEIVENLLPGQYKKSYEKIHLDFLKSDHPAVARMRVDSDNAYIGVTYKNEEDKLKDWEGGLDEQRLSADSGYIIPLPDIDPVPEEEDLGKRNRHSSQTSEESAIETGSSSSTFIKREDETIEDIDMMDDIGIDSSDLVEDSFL
Compound,growth of inflammatory breast cancer cells [1],inhibition of PDGFRβ (PDGFRβ [2]),inhibition of other known RTKs or serine/threonine kinases [3],"downstream pathway signaling (phosphorylated AK and ERK 1/2) (PDGFRβ [4]; human mammary fibroblasts pre-treated, conditioned media from MDA-MB-468 cells, FIG. 2)","increase in PDGFRβ signaling induced by conditioned media (PDGFRβ [4]; human mammary fibroblasts pretreated with crenolanib, conditioned media from TNBC cell line MDA-MB468, FIG. 2 left half)","tumor weight per mouse at sacrifice, lower than in vehicle-treated mice (MMTV-PyMT mice; 20 mg/kg intraperitoneally once daily for 35 d from 8 wk of age, at sacrifice (12 wk), FIG. 1C)",tumor growth (tumor volumes by calipers) vs vehicle-treated mice (MMTV-PyMT mice; 20 mg/kg intraperitoneally once daily for 35 d from 8 wk of age),"tumor growth (tumor volumes by calipers) vs vehicle-treated mice (MMTV-PyMT mice; 20 mg/kg intraperitoneally once daily for 35 d from 8 wk of age, listed as the present invention)",number of tumors (MMTV-PyMT mice; [6]),tumor volume (MMTV-PyMT mice; [6]),tumor weight (MMTV-PyMT mice; [6]),oral bioavailability [5],inhibition of PDGFRα (PDGFRα)
"CC1(COc2ccc3c(c2)ncn3-c2ccc3cccc(N4CCC(N)CC4)c3n2)COC1 [crenolanib, 4-Piperidinamine, 1-[2-[5-[(3-methyl-3-oxetanyl)methoxy]-1H-benzimidazol-1-yl]-8-quinolinyl]]",inhibits the growth,highly selective inhibitor,does not inhibit,inhibited,blocked this increased signaling,55%,grew significantly more slowly,significantly prevented tumor growth,reduced,reduced,reduced,–,–
crenolanib besylate,–,ability to inhibit,–,–,–,–,–,–,–,–,–,orally bioavailable,ability to inhibit
